Laboratory results from ChEMBL document CHEMBL1141094, “Bisphosphonate inhibition of the exopolyphosphatase activity of the Trypanosoma brucei soluble vacuolar pyrophosphatase” (J Med Chem, 2005).

How the values were obtained:
[1] = tested on: KB; assay: Dose to inhibit the growth of human KB carcinoma cell line; assay type: functional; conditions: read-out: ED50 (the source's name)
[2] = biological target: T1, Vacuolar-type proton translocating pyrophosphatase 1 (Trypanosoma brucei) (UniProt Q8MTZ4); assay: Ratio of ED50 against KB cell line to that of IC50 of TbVSP1; assay type: functional, cell-based
T1 sequence (whole entry): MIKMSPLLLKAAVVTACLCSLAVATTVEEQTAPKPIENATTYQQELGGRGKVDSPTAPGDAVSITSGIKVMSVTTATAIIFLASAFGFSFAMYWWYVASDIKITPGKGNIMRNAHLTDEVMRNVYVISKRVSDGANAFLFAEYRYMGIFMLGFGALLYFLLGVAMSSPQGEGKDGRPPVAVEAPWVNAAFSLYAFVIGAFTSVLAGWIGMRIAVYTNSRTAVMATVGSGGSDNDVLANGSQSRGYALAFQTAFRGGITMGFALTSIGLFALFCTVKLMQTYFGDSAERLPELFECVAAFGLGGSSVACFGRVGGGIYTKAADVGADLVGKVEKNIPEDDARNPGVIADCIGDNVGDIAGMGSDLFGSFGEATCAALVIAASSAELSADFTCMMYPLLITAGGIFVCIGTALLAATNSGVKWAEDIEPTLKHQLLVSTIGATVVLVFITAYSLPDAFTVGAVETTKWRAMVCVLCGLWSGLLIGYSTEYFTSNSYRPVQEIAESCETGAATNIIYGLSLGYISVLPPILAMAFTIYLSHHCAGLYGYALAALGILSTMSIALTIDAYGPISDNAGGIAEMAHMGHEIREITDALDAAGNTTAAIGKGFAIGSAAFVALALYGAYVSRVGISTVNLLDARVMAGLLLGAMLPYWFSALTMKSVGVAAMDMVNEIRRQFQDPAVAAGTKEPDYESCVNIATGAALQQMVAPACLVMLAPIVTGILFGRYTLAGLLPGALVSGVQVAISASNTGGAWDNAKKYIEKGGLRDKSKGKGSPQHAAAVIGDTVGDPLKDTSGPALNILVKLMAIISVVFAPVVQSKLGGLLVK

| SMILES | EC50 [1] | TI [2] |
| --- | --- | --- |
| CN(CCOc1ccccc1)CCC(O)(P(=O)(O)O)P(=O)(O)O | 312 µM | 1 |
| O=P(O)(O)C(Nc1cccc(Cc2ccccc2)c1)P(=O)(O)O | 645 µM | 14 |
| O=P(O)(O)C(O)(Cc1cccc(F)c1)P(=O)(O)O | 225 µM | 20 |
| CCCCC(O)(P(=O)(O)O)P(=O)(O)O | 1040 µM | 82 |
| CCCCNC(P(=O)(O)O)P(=O)(O)O [(BUTYLAMINO)METHYLENEDIPHOSPHONIC ACID] | 212 µM | 4.9 |
| O=P(O)(O)C(CNc1ccccn1)P(=O)(O)O | 144 µM | 0.4 |
| CCCCCCCCCCCCCCCC(O)(P(=O)(O)O)P(=O)(O)O | 729 µM | 2.1 |
| CCCCCC(O)(P(=O)(O)O)P(=O)(O)O | 107 µM | 10 |
| Cc1cccc(CC(O)(P(=O)(O)O)P(=O)(O)O)c1 | 0.9 µM | 0.04 |
| O=P(O)(O)C(Nc1ccc2c(c1)CCC2)P(=O)(O)O | 976 µM | 101 |
| O=P(O)(O)C(O)(Cc1cccc(Cl)c1)P(=O)(O)O | 283 µM | 38 |
| Nc1ccc(CC(O)(P(=O)(O)O)P(=O)(O)O)cc1 | 218 µM | 4 |
| O=P(O)(O)C(NC1CCCCCC1)P(=O)(O)O [INCADRONIC ACID] | 166 µM | 3.7 |
| CCCNC(P(=O)(O)O)P(=O)(O)O [(PROPYLAMINO)METHYLENEDIPHOSPHONIC ACID] | 499 µM | 10 |
| CCCCCCCCCNC(P(=O)(O)O)P(=O)(O)O [(NONYLAMINO)METHYLENEDIPHOSPHONIC ACID] | 919 µM | 16 |
| CCCCCCCCC(O)(P(=O)(O)O)P(=O)(O)O | 64 µM | 1.3 |
| CCc1ccc(NC(P(=O)(O)O)P(=O)(O)O)cc1 | 257 µM | 21 |

| SMILES | EC50 [1] | TI [2] |
| --- | --- | --- |
| CCc1cccc(NC(P(=O)(O)O)P(=O)(O)O)n1 | 847 µM | 15 |
| CC(C)c1cccc(NC(P(=O)(O)O)P(=O)(O)O)c1 | 771 µM | 79 |
| O=[N+]([O-])c1cccc(CC(O)(P(=O)(O)O)P(=O)(O)O)c1 | 727 µM | 44 |
| CCCCOc1ccc(NC(P(=O)(O)O)P(=O)(O)O)cc1 | 210 µM | 5.3 |
| O=P(O)(O)C(O)(Cc1cccc2ccccc12)P(=O)(O)O | 847 µM | 75 |
| O=P(O)(O)C(O)(Cc1cccc(C(F)(F)F)c1)P(=O)(O)O | 109 µM | 6.3 |
| O=P(O)(O)C(Nc1ccc(Cl)cc1Cl)P(=O)(O)O [2,4-DICHLOROPHENYLAMINOMETHYLENEBISPHOSPHONIC ACID] | 728 µM | 169 |
| CC(C)c1cccc(C(C)C)c1NC(P(=O)(O)O)P(=O)(O)O | 713 µM | 28 |
| CCn1c2ccccc2c2ccc(NC(P(=O)(O)O)P(=O)(O)O)cc21 | 710 µM | 19 |
| CCc1cccc(NC(P(=O)(O)O)P(=O)(O)O)c1 | 1020 µM | 423 |
| O=P(O)(O)C(Nc1cccc(-c2ccccc2)c1)P(=O)(O)O | 749 µM | 174 |
| CC(C)(C)c1cc(NC(P(=O)(O)O)P(=O)(O)O)cc(C(C)(C)C)c1 | 634 µM | 39 |
| O=P(O)(O)C(O)(Cn1ccnc1)P(=O)(O)O [ZOLEDRONIC ACID] | 63.7 µM | 0.3 |
| O=P(O)(O)C(Nc1ccc(-c2ccccc2)cc1)P(=O)(O)O | 495 µM | 1.4 |
| O=P(O)(O)C(O)(Cc1cccnc1)P(=O)(O)O [RISEDRONIC ACID] | 255 µM | 0.4 |
| O=P(O)(O)C(O)(Cc1cccc(Br)c1)P(=O)(O)O | 228 µM | 25 |
| CCCCCCCCCC(O)(P(=O)(O)O)P(=O)(O)O | 892 µM | 2.5 |
